Values of other authors as cited in US11246836B2, “Intramuscular depot of decoquinate compositions and method of prophylaxis and treatment thereof” (BLUELIGHT PHARMATECH CO., LTD., priority 2018, dated 2022).
Converted amounts (≈) assume the structure as drawn.

How the values were obtained:
P. yoelii = details: 50 mg/kg in a corn oil emulsion
Plasmodium berghei ANKA = details: single dose of 5 mg/kg suspended in soybean oil

Compound: CCCCCCCCCCOc1cc2c(=O)c(C(=O)OCC)c[nH]c2cc1OCC [decoquinate, ethyl-6-decyloxy-7-ethoxy-4-hydroxyquinoline-3-carboxylate]
- minimum inhibitory concentration (MIC) (Plasmodium): 5.12 ng/mL (≈ 0.0123 µM)
- causal prophylaxis of parasitemia (P. yoelii): efficacious
- appearance of blood stage parasites (Plasmodium berghei ANKA): prevent the appearance of blood stage Plasmodium berghei ANKA parasites
